Measurements reported in ChEMBL document CHEMBL1127360, “Antipodal alpha-N-(methyl through decyl)-N-normetazocines (5,9 alpha-dimethyl-2'-hydroxy-6,7-benzomorphans): in vitro and in vivo properties” (J Med Chem, 1994).
pKi: −log10 of the molar value. Calls of active or inactive are those of the source. The rule behind the calls is not given here.

Key:
Mu-type opioid receptor = Mu-type opioid receptor (Rattus norvegicus, UniProt P33535); assay: Inhibition against mu receptor using [3H]DAMGO in homogenate of rat brain cerebellum; type: tissue-based
Mus musculus [1] = assay: In vivo antinociceptive activity at 10 mg/kg was tested through injecting 2 mg/kg ip phenylquinone, activity calculated by total number of abdominal-stretches per group counted over a 1 min period; type: functional
Mus musculus [2] = assay: In vivo antinociceptive activity at 10 mg/kg was tested through hot plate (HP) by placing mouse on hot plate, and calculating number of times it jumps or licks its paw in 5 seconds; type: functional
Glutamate NMDA receptor = assay: Inhibition using [3H]TCP in homogenate of rat brain; type: tissue-based
Mus musculus [3] = assay: In vivo for its narcotic antagonistic activity of the antinociceptive effect in mouse; type: functional, organism-based
Mus musculus [4] = assay: In vivo antinociceptive activity was tested through tail flick (TF) with this compound in mouse at 30 mg/kg concentration; type: functional

Chain of Mu-type opioid receptor (P33535 whole entry): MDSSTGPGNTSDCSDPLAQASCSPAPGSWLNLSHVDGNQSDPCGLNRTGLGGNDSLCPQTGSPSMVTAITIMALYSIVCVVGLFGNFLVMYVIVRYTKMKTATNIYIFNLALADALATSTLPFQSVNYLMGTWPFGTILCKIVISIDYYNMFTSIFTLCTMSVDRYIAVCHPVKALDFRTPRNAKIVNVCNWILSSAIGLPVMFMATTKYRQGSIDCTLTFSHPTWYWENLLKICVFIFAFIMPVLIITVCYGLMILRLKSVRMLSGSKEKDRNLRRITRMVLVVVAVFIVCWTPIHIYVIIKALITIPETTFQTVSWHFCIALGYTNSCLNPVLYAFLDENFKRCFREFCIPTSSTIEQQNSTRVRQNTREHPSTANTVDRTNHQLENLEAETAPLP

In the case of `C[C@@H]1C2Cc3ccc(O)cc3[C@]1(C)CCN2`, the pKi (Mu-type opioid receptor) was 6.33, the Inhibition (Mus musculus [1]) was 23% and the inhibition in vivo at 10 mg/kg (Mus musculus [2]) was 13%. For the same molecule, the pKi (Glutamate NMDA receptor) was 7.52, the Activity (Mus musculus [3]) was “inactive” and the inhibition in vivo at 30 mg/kg (Mus musculus [4]) was 27%.
